These results are taken from US20080176902A1, “Salt III” (ASTRAZENECA AB, priority 2005, published 2008).

For orientation: IC50 means the midpoint of a concentration-inhibition curve.

Each structure is given as a SMILES string. Some results are limits rather than exact numbers.

This assay deals with T1, recombinant human CCR1 (Homo sapiens, UniProt P32246).
T1 construct: expressed in transfected cells; membranes prepared from them
T1 sequence (P32246 1-355): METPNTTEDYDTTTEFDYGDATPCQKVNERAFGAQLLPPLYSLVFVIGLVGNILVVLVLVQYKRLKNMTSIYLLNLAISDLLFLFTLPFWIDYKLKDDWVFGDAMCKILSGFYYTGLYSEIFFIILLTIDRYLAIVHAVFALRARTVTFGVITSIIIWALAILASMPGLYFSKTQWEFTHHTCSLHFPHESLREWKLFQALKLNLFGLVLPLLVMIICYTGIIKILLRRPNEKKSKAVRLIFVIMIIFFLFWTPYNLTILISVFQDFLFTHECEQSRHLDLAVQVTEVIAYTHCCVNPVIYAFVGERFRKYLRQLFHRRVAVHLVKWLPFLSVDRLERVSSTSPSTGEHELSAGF
As to the kind of experiment: Human CCR1 binding assay ([125I] MIP-1α displacement, HEK-CCR1 membranes). The conditions noted are these: HEK293 membranes expressing recombinant human CCR1; 33 pM [125I] MIP-1α.

Method: HEK293 cells, from ECACC, stably expressing recombinant human CCR1 (HEK-CCR1) were used to prepare cell membranes containing CCR1. The membranes were stored at −70° C. The concentration of membranes of each batch was adjusted to 10% specific binding of 33 pM [^125I] MIP-1α.
100 μL of HEK-CCR1 membranes diluted in assay buffer pH 7.4 (137 mM NaCl (Merck, Cat No 1.06404), 5.7 mM Glucose (Sigma, Cat No G5400), 2.7 mM KCl (Sigma, Cat No P-9333), 0.36 mM NaH2PO4×H2O (Merck, Cat No 1.06346), 10 mM HEPES (Sigma, Cat No H3375), 0.1% (w/v) Gelatine (Sigma, Cat No G2625)) with the addition of 17500 units/L Bacitracin (Sigma, Cat No B1025) were added to each well of the 96 well filter plate (0.45 μm opaque Millipore cat no MHVB N4550). […] 12 μl assay buffer with 10% DMSO was added to certain wells (without compound) to detect maximal binding (B0).
12 μL [^125I] MIP-1α, diluted in assay buffer to a final concentration in the wells of 33 pM, was added to all wells. The plates with lid were then incubated for 1.5 hrs at room temperature. After incubation the wells were emptied by vacuum filtration (MultiScreen Resist Vacuum Manifold system, Millipore) and washed once with 200 μl assay buffer. After the wash, all wells received an addition of 50 μL of scintillation fluid (OptiPhase “Supermix”, Wallac Oy, Turko, Finland). Bound [^125I] MIP-1: was measured using a Wallac Trilux 1450 MicroBeta counter. […]

Regarding `CC(=O)Nc1ccc(O)cc1OC[C@@](C)(O)CNC1CCN(Cc2ccc(Cl)cc2)CC1` [N-{2-[((2S)-3-{[1-(4-chlorobenzyl)piperidin-4-yl]amino}-2-hydroxy-2-methylpropyl)oxy]-4-hydroxyphenyl}acetamide ditrifluoroacetate], the IC50 was under 50 nM.
